Data published in patent publication US9321718B2 (CHROMA THERAPEUTICS LTD., priority 2010, dated 2016).
Like-named read-outs stand apart in the source and are kept apart here.

Experiments:
[1] = molecular target: T1, human recombinant his-tagged HSP90α (Homo sapiens, UniProt P07900); assay: HSP90 enzyme assay (HTRF, competition with biotinylated Geldanamycin); format: binding; conditions: IC50 range; read-out: Enzyme Assay
T1 construct: purchased Prospec Technogene #HSP90
Description: An HTRF (homogeneous time resolved fluorescence) assay is used to measure the interaction of the compounds with HSP90. The assay measures binding of biotinylated Geldanamycin (bio-GM; Biomol, #EI-341, lot: A9199a) to human recombinant his-tagged HSP90α (HSP90; Prospec Technogene, #HSP90, lot: 260HSP9001). A signal is generated by fluorescence resonance energy transfer from an Europium-cryptate labeled anti-his antibody (anti-his-K; Cisbio International, #61HISKLA, lot: 33V) via the HSP90-GM-biotin complex to a fluorescence acceptor (allophycocyanin) linked to streptavidin (SA-XL; Cisbio International, #610SAXLB, lot: 089).
Unlabeled GM or compounds compete with the bio-GM for binding to HSP90 resulting in reduced fluorescence energy transfer/assay signal.
A preformed (1 hour incubation) complex of HSP90 with the anti-his-K is added to the compound solution in a 384 well microplate (Corning, #3710) and incubated for 15 minutes. A preformed (1 hour incubation) complex of bio-GM with the SA-XL is added to the wells and incubated for 20 hours. All incubations are performed at room temperature. The final assay volume is 50 μl/well. The final concentrations in the assay are: 50 mM Hepes pH 7.3, 50 mM NaCl, 100 mM KF, 1 mM EDTA, 1 mM DTT, 0.1% Triton-X-100, […] HSP90, 40 nM SA-XL, 40 nM bio-GM. Test compounds are dissolved in DMSO, prediluted in assay buffer and tested at a final concentration between 5000 nM and 0.3 nM. The resulting DMSO concentration is 0.5% and included in all controls. High controls are without test compounds, low controls without test compounds, without HSP90 and without bio-GM. As a reference inhibitor unlabeled GM is used in the same concentrations as the test compounds.
Inhibition is calculated compared to the assay controls using an Excel spreadsheet (Microsoft). IC50 values are calculated by non-linear least squares fitting to the standard dose-response model using GraphPad Prism (GraphPad Software Inc).

[2] = test system: TNFα release from LPS stimulated THP-1 (hCE-1 +ve) cells; assay: LPS-stimulation of THP-1 cells (TNF-α release); format: cell-based, human; conditions: IC50 range, TNF-α after LPS 1 μg/ml, 6 hours, read-out: THP-1 Assay
Description: THP-1 cells are plated in […] at a density of 4×10^4 cells/well in V-bottomed 96 well tissue culture treated plates and incubated at 37° C. in 5% CO2 for 16 hours. 2 Hours after the addition of the inhibitor in 100 μl of tissue culture media, the cells are stimulated with LPS (E. Coli strain 005:B5, Sigma) at a final concentration of 1 μg/ml and incubated at 37° C. in 5% CO2 for 6 hours. TNF-α levels are measured from cell-free supernatants by sandwich ELISA (R&D Systems #QTA00B).

Row | Compound | IC50 [1] | IC50 ([2]; Homo sapiens, THP-1) | IC50 [2]
1 | CC(C)c1cc(C(=O)N2CCC(CCN[C@H](C(=O)OC3CCCC3)C(C)C)CC2)c(O)cc1O [Example 46, cyclopentyl N-[2-(1-{[2,4-dihydroxy-5-(propan-2-yl)phenyl]carbonyl}piperidin-4-yl)ethyl]-L-valinate] | < 100 nM | > 1000 nM | –
2 | CC(C)C[C@@H](NCC1CCN(C(=O)c2cc(C(C)C)c(O)cc2O)CC1)C(=O)OC(C)(C)C [Example 27, tert-butyl N-[(1-{[2,4-dihydroxy-5-(propan-2-yl)phenyl]carbonyl}piperidin-4-yl)methyl]-D-leucinate] | < 100 nM | > 1000 nM | –
3 | CC(C)C[C@@H](NC1CCN(C(=O)c2cc(C(C)C)c(O)cc2O)CC1)C(=O)OC1CCCC1 [Example 12, cyclopentyl N-(1-{[2,4-dihydroxy-5-(propan-2-yl)phenyl]carbonyl}piperidin-4-yl)-D-leucinate] | < 100 nM | > 1000 nM | –
4 | CC(C)c1cc(C(=O)N2CCC(N[C@@H](Cc3ccccc3)C(=O)OC(C)(C)C)CC2)c(O)cc1O [Example 16, tert-butyl N-(1-{[2,4-dihydroxy-5-(propan-2-yl)phenyl]carbonyl}piperidin-4-yl)-L-phenylalaninate] | < 100 nM | > 1000 nM | –
5 | CC(C)C[C@H](NC1CCN(C(=O)c2cc(C(C)C)c(O)cc2O)CC1)C(=O)OC(C)(C)C [Example 6, tert-butyl N-(1-{[2,4-dihydroxy-5-(propan-2-yl)phenyl]carbonyl}piperidin-4-yl)-L-leucinate] | < 100 nM | > 1000 nM | –
6 | CC(C)c1cc(C(=O)N2CCC(CN[C@H](C(=O)OC3CCCC3)C3CCCCC3)CC2)c(O)cc1O [Example 30, cyclopentyl (2S)-cyclohexyl{[(1-{[2,4-dihydroxy-5-(propan-2-yl)phenyl]carbonyl}piperidin-4-yl)methyl]amino}ethanoate] | 100 to 1000 nM | > 1000 nM | –
7 | CC(C)c1cc(C(=O)N2CCC(CN[C@@H](COC(C)(C)C)C(=O)OC(C)(C)C)CC2)c(O)cc1O [Example 35, tert-butyl O-tert-butyl-N-[(1-{[2,4-dihydroxy-5-(propan-2-yl)phenyl]carbonyl}piperidin-4-yl)methyl]-L-serinate] | < 100 nM | > 1000 nM | –
8 | CC(C)c1cc(C(=O)N2CCC(CN[C@@H](C)C(=O)OC(C)(C)C)CC2)c(O)cc1O [Example 26, tert-butyl N-[(1-{[2,4-dihydroxy-5-(propan-2-yl)phenyl]carbonyl}piperidin-4-yl)methyl]-L-alaninate] | < 100 nM | > 1000 nM | –
9 | CC(C)c1cc(C(=O)N2CCC(CCN[C@H](C(=O)OC3CCCC3)C3CCCCC3)CC2)c(O)cc1O [Example 48, cyclopentyl (2S)-cyclohexyl{[2-(1-{[2,4-dihydroxy-5-(propan-2-yl)phenyl]carbonyl}piperidin-4-yl)ethyl]amino}ethanoate] | 100 to 1000 nM | > 1000 nM | –
10 | cyclopentyl N-[(1-{[2,4-dihydroxy-5-(propan-2-yl)phenyl]carbonyl}piperidin-4-yl)methyl]-L-valinate [Example 29] | < 100 nM | – | > 1000 nM
11 | CC(C)c1cc(C(=O)N2CCC(CCN[C@H](C(=O)OC3CCCC3)c3ccccc3)CC2)c(O)cc1O [Example 51, cyclopentyl (2S)-{[2-(1-{[2,4-dihydroxy-5-(propan-2-yl)phenyl]carbonyl}piperidin-4-yl)ethyl]amino}(phenyl)ethanoate] | < 100 nM | 100 to 1000 nM | –
12 | CC(C)C[C@H](NCC1CCN(C(=O)c2cc(C(C)C)c(O)cc2O)CC1)C(=O)OC(C)(C)C [Example 24, tert-butyl N-[(1-{[2,4-dihydroxy-5-(propan-2-yl)phenyl]carbonyl}piperidin-4-yl)methyl]-L-leucinate] | < 100 nM | > 1000 nM | –
13 | CC(C)C[C@H](NCCC1CCN(C(=O)c2cc(C(C)C)c(O)cc2O)CC1)C(=O)OC(C)(C)C [Example 42, tert-butyl N-[2-(1-{[2,4-dihydroxy-5-(propan-2-yl)phenyl]carbonyl}piperidin-4-yl)ethyl]-L-leucinate] | < 100 nM | 100 to 1000 nM | –
14 | CC(C)c1cc(C(=O)N2CCC(N[C@@H](C)C(=O)OC(C)(C)C)CC2)c(O)cc1O [Example 8, tert-butyl N-(1-{[2,4-dihydroxy-5-(propan-2-yl)phenyl]carbonyl}piperidin-4-yl)-L-alaninate] | < 100 nM | > 1000 nM | –
15 | N-[2-(1-{[2,4-dihydroxy-5-(propan-2-yl)phenyl]carbonyl}piperidin-4-yl)ethyl]-2-methylalanine [Example 114] | < 100 nM | – | –
16 | tert-butyl N-[2-(1-{[2,4-dihydroxy-5-(propan-2-yl)phenyl]carbonyl}piperidin-4-yl)ethyl]-L-serinate [Example 52] | < 100 nM | – | –
17 | CC(C)C[C@H](NCc1cccc(CN(C)C(=O)c2cc(C(C)C)c(O)cc2O)c1)C(=O)O [Example 84, N-(3-{[{[2,4-dihydroxy-5-(propan-2-yl)phenyl]carbonyl}(methyl)amino]methyl}benzyl)-L-leucine] | < 100 nM | – | –
18 | CC(C)C[C@H](NCCc1ccc2c(c1)CN(C(=O)c1cc(C(C)C)c(O)cc1O)C2)C(=O)O [Example 81, N-[2-(2-{[2,4-dihydroxy-5-(propan-2-yl)phenyl]carbonyl}-2,3-dihydro-1H-isoindol-5-yl)ethyl]-L-leucine] | < 100 nM | – | –

Further lines, results first:

Row | IC50 [1] | IC50 ([2]; Homo sapiens, THP-1) | IC50 [2] | Compound
19 | < 100 nM | > 1000 nM | – | CC(C)C[C@H](NCCCNCC1CCN(C(=O)c2cc(C(C)C)c(O)cc2O)CC1)C(=O)OC1CCCC1 [Example 126]
20 | < 100 nM | – | – | CC(C)c1cc(C(=O)N2CCC(N[C@H](C(=O)O)c3ccccc3)CC2)c(O)cc1O [Example 99, (2S)-[(1-{[2,4-dihydroxy-5-(propan-2-yl)phenyl]carbonyl}piperidin-4-yl)amino](phenyl)ethanoic acid]
21 | < 100 nM | – | – | CC(C)c1cc(C(=O)N2CCC(CNC(C)(C)C(=O)O)CC2)c(O)cc1O [Example 117, N-[(1-{[2,4-dihydroxy-5-(propan-2-yl)phenyl]carbonyl}piperidin-4-yl)methyl]-2-methylalanine]
22 | > 1000 nM | – | – | CC(C)C[C@@H](NC1CCN(C(=O)c2cc(C(C)C)c(O)cc2O)CC1)C(=O)O [Example 109, N-(1-{[2,4-dihydroxy-5-(propan-2-yl)phenyl]carbonyl}piperidin-4-yl)-D-leucine]
23 | < 100 nM | – | – | CC(C)C[C@H](NC1CCN(C(=O)c2cc(C(C)C)c(O)cc2O)C1)C(=O)O (stereo partly drawn) [Example 95, N-(1-{[2,4-dihydroxy-5-(propan-2-yl)phenyl]carbonyl}pyrrolidin-3-yl)-L-leucine]
24 | < 100 nM | – | – | CC(C)c1cc(C(=O)N2CCC(CCN[C@@H](Cc3ccccc3)C(=O)O)CC2)c(O)cc1O [Example 111, N-[2-(1-{[2,4-dihydroxy-5-(propan-2-yl)phenyl]carbonyl}piperidin-4-yl)ethyl]-L-phenylalanine]
25 | < 100 nM | – | – | CC(C)C[C@H](NCC1CCN(C(=O)c2cc(C(C)C)c(O)cc2O)CC1)C(=O)O [Example 103, N-[(1-{[2,4-dihydroxy-5-(propan-2-yl)phenyl]carbonyl}piperidin-4-yl)methyl]-L-leucine]
26 | 100 to 1000 nM | – | – | CC(C)C[C@H](NC[C@@H]1CCCN1C(=O)c1cc(C(C)C)c(O)cc1O)C(=O)O [Example 94, N-{[(2S)-1-{[2,4-dihydroxy-5-(propan-2-yl)phenyl]carbonyl}pyrrolidin-2-yl]methyl}-L-leucine]
27 | < 100 nM | – | – | CC(C)c1cc(C(=O)N(C)Cc2ccc(CNC(C)(C)C(=O)O)cc2)c(O)cc1O [Example 86, N-(4-{[{[2,4-dihydroxy-5-(propan-2-yl)phenyl]carbonyl}(methyl)amino]methyl}benzyl)-2-methylalanine]
28 | < 100 nM | – | – | CC(C)c1cc(C(=O)N2CCC(N[C@H](C(=O)O)C(C)C)CC2)c(O)cc1O [Example 98, N-(1-{[2,4-dihydroxy-5-(propan-2-yl)phenyl]carbonyl}piperidin-4-yl)-L-valine]
29 | < 100 nM | – | – | CC(C)c1cc(C(=O)N(C)Cc2cccc(CNC(C)(C)C(=O)O)c2)c(O)cc1O [Example 87, N-(3-{[{[2,4-dihydroxy-5-(propan-2-yl)phenyl]carbonyl}(methyl)amino]methyl}benzyl)-2-methylalanine]
